Experiments:
[1] = target: T1, cloned human GRP-preferring receptor (BB2) (Homo sapiens, UniProt P30550); assay: BB2 binding assay, [125I][Tyr4]bombesin competition on membranes of CHO-K1 cells; conditions: 90 minutes
T1 construct: expressed in transfected cells; membranes prepared from the cells
Description: (§1) The compounds of the invention have been evaluated in receptor binding assays which measure their affinity in a cloned human NMB-preferring receptor (BB1) assay and in a cloned human GRP-preferring receptor (BB2) assay. […] Accordingly they may be useful for the diagnosis, prevention, or treatment of male sexual dysfunction in humans and animals, female sexual dysfunction in humans and animals, anxiety and panic disorders, social phobia, depression, psychoses, sleeping disorders, memory impairment, pulmonary hypertension, lung repair and lung development disorders, cancer including prostate cancer and pancreatic cancer, hepatic porphyria, gastrointestinal secretory disturbances, gastrointestinal disorders including colitis, Crohn's disease and inflammatory bowel disease, emesis, anorexia, pain, seasonal affective disorders, feeding disorders, or pruritus.
(§2) In the following experiments, measurement of BB1 and BB2 binding was as follows. CHO-K1 cells stably expressing cloned human NMB (for (BB1 assay) and GRP receptors (for BB2 assay) were routinely grown in Ham's F12 culture medium supplemented with 10% foetal calf serum and 2 mM glutamine. For binding experiments, cells were harvested by trypsinization, and stored frozen at −70° C. in Ham's F12 culture medium containing 5% DMSO until required. On the day of use, cells were thawed rapidly, diluted with an excess of culture medium, and centrifuged for 5 minutes at 2000 g. Cells were resuspended in 50 mM Tris-HCl assay buffer (pH 7.4 at 21° C., containing 0.02% BSA, […] bacitracin, […] chymostatin, […] leupeptin, and 2 mM phosphoramidon), counted, and polytronned (setting 5, 10 sec) before centrifuging for 10 minutes at 28,000 g. The final pellet was resuspended in assay buffer to a final cell concentration of 1.5×10^5/mL. For binding assays, 200 μL aliquots of membranes were incubated with [^125I][Tyr^4]bombesin (<0.1 nM) in the presence and absence of test compounds (final assay volume 250 μL) for 60 minutes and 90 minutes for NMB and GRP receptors, respectively. Nonspecific binding was defined by 1 μM bombesin. Assays were terminated by rapid filtration under vacuum onto Whatman GF/C filters presoaked in 0.2% PEI for >2 hours, and washed 50 mM Tris-HCl (pH 6.9 at 21° C.; 6×1 mL). Radioactivity bound was determined using a gamma counter.
All competition data was analysed using nonlinear regression utilising iterative curve-plolting procedures in Prism® (GraphPad Software Inc., San Diego, USA). IC50 values were corrected to Ki values using the Cheng-Prusoff equation (Cheng Y., Prusoff W. H., Biochem. Pharmacol. 22: 3099-3108, 1973).

[2] = target: T2, cloned human NMB-preferring receptor (BB1) (Homo sapiens, UniProt P28336); assay: BB1 binding assay, [125I][Tyr4]bombesin competition on membranes of CHO-K1 cells; conditions: 60 minutes
T2 construct: expressed in transfected cells; membranes prepared from the cells
T2 sequence (P28336 whole entry): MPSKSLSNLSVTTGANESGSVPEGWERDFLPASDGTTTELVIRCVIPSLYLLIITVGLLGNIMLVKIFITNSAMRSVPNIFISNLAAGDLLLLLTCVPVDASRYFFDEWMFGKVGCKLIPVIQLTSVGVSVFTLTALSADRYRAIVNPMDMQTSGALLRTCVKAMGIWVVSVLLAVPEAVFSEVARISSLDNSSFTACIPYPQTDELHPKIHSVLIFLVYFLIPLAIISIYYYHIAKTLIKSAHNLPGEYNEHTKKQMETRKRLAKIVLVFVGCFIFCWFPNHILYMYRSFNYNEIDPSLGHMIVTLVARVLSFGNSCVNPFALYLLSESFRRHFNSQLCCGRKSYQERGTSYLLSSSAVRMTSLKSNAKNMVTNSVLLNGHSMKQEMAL
Description: as §1
as §2, with “For binding assays, 200 μL aliquots of membranes were incubated with [^125I][Tyr^4]bombesin (<0.1 nM) in the presence and absence of test compounds (final assay volume 250 μL) for 60 minutes and 90 minutes for NMB and GRP receptors, respectively. Nonspecific binding was defined by 1 μM bombesin. Assays were terminated by rapid filtration under vacuum onto Whatman GF/C filters presoaked in 0.2% PEI for >2 hours, and washed 50 mM Tris-HCl (pH 6.9 at 21° C.; 6×1 mL).” left out
All competition data was analysed using nonlinear regression utilising iterative curve-plolting procedures in Prism® (GraphPad Software Inc., San Diego, USA). […]

[3] = Table 2, N-acyl derivatives of Intermediate VIa
[4] = Table 6, N-terminal sulfonamide derivatives

T1 sequence (P30550 whole entry): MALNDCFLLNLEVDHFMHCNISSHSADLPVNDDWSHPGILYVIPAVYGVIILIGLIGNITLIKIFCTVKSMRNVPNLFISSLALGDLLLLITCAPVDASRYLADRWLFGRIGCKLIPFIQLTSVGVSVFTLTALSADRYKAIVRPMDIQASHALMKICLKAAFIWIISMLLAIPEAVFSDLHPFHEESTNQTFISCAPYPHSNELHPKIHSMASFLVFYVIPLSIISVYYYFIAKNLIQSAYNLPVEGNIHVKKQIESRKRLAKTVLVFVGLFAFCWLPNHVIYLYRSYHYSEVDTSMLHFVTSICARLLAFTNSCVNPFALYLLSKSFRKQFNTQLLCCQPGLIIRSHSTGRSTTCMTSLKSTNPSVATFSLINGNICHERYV

Cc1ccccc1CC(=O)N[C@@](C)(Cc1c[nH]c2ccccc12)C(=O)NCC1(c2ccccn2)CCCCC1 [Example 20, (S)-3-(1H-Indol-3-yl)-2-methyl-N-(1-pyridin-2-yl-cyclohexylmethyl)-2-(2-o-tolyl-ethanoylamino)-propionamide]
IC50 [1, 3]: > 10000 nM

C[C@@](Cc1c[nH]c2ccccc12)(NS(=O)(=O)c1cc(Cl)sc1Cl)C(=O)NCC1(c2ccccn2)CCCCC1 [Example 126, (S)-2-(2,5-Dichloro-thiophene-3-sulfonylamino)-3-(1H-indol-3-yl)-2-methyl-N-(1-pyridin-2-yl-cyclohexylmethyl)-propionamide]
IC50 [1, 4]: > 10000 nM

C[C@@](Cc1c[nH]c2ccccc12)(NS(=O)(=O)c1cc(C(F)(F)F)ccc1Cl)C(=O)NCC1(c2ccccn2)CCCCC1 [Example 135, (S)-2-(2-Chloro-5-trifluoromethyl-benzenesulfonylamino)-3-(1H-indol-3-yl)-2-methyl-N-(1-pyridin-2-yl-cyclohexylmethyl)-propionamide]
IC50 [2, 4]: 627 nM | IC50 [1, 4]: > 10000 nM

C[C@@](Cc1c[nH]c2ccccc12)(NS(=O)(=O)c1ccc(C(F)(F)F)cc1[N+](=O)[O-])C(=O)NCC1(c2ccccn2)CCCCC1 [Example 136, (S)-3-(1H-Indol-3-yl)-2-methyl-2-(2-nitro-4-trifluoromethyl-benzenesulfonylamino)-N-(1-pyridin-2-yl-cyclohexylmethyl)-propionamide]
IC50 [2, 4]: 758 nM | IC50 [1, 4]: > 10000 nM

Dimethylamino-N {(S)-2-(1H-indol-3-yl)-1-methyl-1-[(1-pyridin-2-yl-cyclohexyl-methyl)-carbamoyl]-ethyl}-benzamide [Example 11]
IC50 [2, 3]: 2520 nM
